Test results taken from patent US11339161B2, “Triazolo pyridines as modulators of gamma-secretase” (Boehringer Ingelheim International GmbH, priority 2017, dated 2022).
Where two headings read alike, the source gives them in different places.

Assays:
FLT4 (VEGFR3) = FLT4 (VEGFR3) (Homo sapiens, UniProt P35916); assay: Z'-LYTE SelectScreen biochemical kinase assay FLT4 (VEGFR3)
Source text: (§1) Thermo Fisher Scientific SelectScreen™ Biochemical Kinase Profiling Service Z′-LYTE™ Screening Protocol and Assay Conditions Assay Theory
(§2) The […] biochemical assay employs a fluorescence-based, coupled-enzyme format and is based on the differential sensitivity of phosphorylated and non-phosphorylated peptides to proteolytic cleavage. The peptide substrate is labeled with two fluorophores—one at each end—that make up a FRET pair. In the primary reaction, the kinase transfers the gamma-phosphate of ATP to a single tyrosine, serine or threonine residue in a synthetic FRET-peptide. In the secondary reaction, a site-specific protease recognizes and cleaves non-phosphorylated FRET-peptides. Phosphorylation of FRET-peptides suppresses cleavage by the Development Reagent. Cleavage disrupts FRET between the donor (i.e., coumarin) and acceptor (i.e., fluorescein) fluorophores on the FRET-peptide, whereas uncleaved, phosphorylated FRET-peptides maintain FRET. A ratiometric method, which calculates the ratio (Emission Ratio=Coumarin emission (445 nm)/Fluorescein emission (520 nm)) of donor emission to acceptor emission after excitation of the donor fluorophore at 400 nm, is used to quantitate reaction progress, as shown in the equation below. A significant benefit of this ratiometric method for quantitating reaction progress is the elimination of well-to-well variations in FRET-peptide concentration and signal intensities. As a result, the assay yields very high Z′-factor values (>0.7) at a low percent phosphorylation. Both cleaved and uncleaved FRET-peptides contribute to the fluorescence signals and therefore to the Emission Ratio. The extent of phosphorylation of the FRET-peptide can be calculated from the Emission Ratio. The Emission Ratio will remain low if the FRET-peptide is phosphorylated (i.e., no kinase inhibition) and will be high if the FRET-peptide is non-phosphorylated (i.e., kinase inhibition).
(§3) The Test Compounds are screened in 1% DMSO (final) in the well. For 10 point titrations, 3-fold serial dilutions are conducted from the starting concentration of the customer's choosing.
(§4) All Peptide/Kinase Mixtures are diluted to a 2× working concentration in the appropriate Kinase Buffer (see section Kinase Specific Assay Conditions for a complete description).
(§5) All ATP Solutions are diluted to a 4× working concentration in Kinase Buffer (50 mM HEPES pH 7.5, 0.01% BRIJ-35, 10 mM MgCl2, 1 mM EGTA). ATP Km apparent is previously determined using a Z″-LYTE assay.
(§6) The Development Reagent is diluted in Development Buffer (see section Kinase-Specific Assay Conditions—Direct and Cascade for a complete description).
(§7) Bar-coded Corning, low volume NBS, black 384-well plate (Corning Cat. #4514) • 1. 100 nL—100× Test Compound in 100% DMSO • 2. 2.4 μL—Kinase buffer • 3. 5 μL—2× Peptide/Kinase Mixture • 4. 2.5 μL—4×ATP Solution • 5. 30—second plate shake • 6. 60—minute Kinase Reaction incubation at room temperature • 7. 5 μL—Development Reagent Solution • 8. 30—second plate shake • 9. 60—minute Development Reaction incubation at room temperature • 10. Read on fluorescence plate reader and analyze the data Z′-LYTE Assay Controls
(§8) SelectScreen Kinase Profiling Service uses XLfit from IDBS. The dose response curve is curve fit to model number 205 (sigmoidal dose-response model).
The 2×FLT4 (VEGFR3)/Tyr 04 mixture is prepared in 50 mM HEPES pH 7.5, 0.01% BRIJ-35, 10 mM MgCl2, 4 mM MnCl2, 1 mM EGTA, 2 mM DTT. The final 10 μL Kinase Reaction consists of 2-10.5 ng FLT4 (VEGFR3) and 2 μM Tyr 04 in 50 mM HEPES pH 7.5, 0.01% BRIJ-35, 10 mM MgCl2, 2 mM MnCl2, 1 mM EGTA, 1 mM DTT. After the 1 hour Kinase Reaction incubation, 5 μL of a 1:64 dilution of Development Reagent B is added.

ABL1 = ABL1 (Homo sapiens, UniProt P00519); assay: Z'-LYTE SelectScreen biochemical kinase assay ABL1
Source text: as §1, §2, §3, §4, §5, §6, §7, §8
(§9) The 2×ABL1/Tyr 02 mixture is prepared in 50 mM HEPES pH 7.5, 0.01% BRIJ-35, 10 mM MgCl2, 1 mM EGTA. The final 10 μL Kinase Reaction consists of 0.29-1.26 ng ABL1 and 2 μM Tyr 02 in 50 mM HEPES pH 7.5, 0.01% BRIJ-35, 10 mM MgCl2, 1 mM EGTA. After the 1 hour Kinase Reaction incubation, 5 μL of a 1:128 dilution of Development Reagent A is added.

PTK2 (FAK) = PTK2 (FAK) (Homo sapiens, UniProt Q05397); assay: Z'-LYTE SelectScreen biochemical kinase assay PTK2 (FAK)
Source text: as §1, §2, §3, §4, §5, §6, §7, §8
as §9, with “The 2×PTK2 (FAK)/Tyr 07” for “The 2×ABL1/Tyr 02”, “of 12.5-100” for “of 0.29-1.26”, “ng PTK2 (FAK)” for “ng ABL1”, “Tyr 07” for “Tyr 02”, “a 1:16” for “a 1:128”, “Reagent B” for “Reagent A”

CDK5/p35 = CDK5/p35 (Homo sapiens, UniProt Q00535); assay: Z'-LYTE SelectScreen biochemical kinase assay CDK5/p35
Source text: as §1, §2, §3, §4, §5, §6, §7, §8
as §9, with “2×CDK5/p35/Ser/Thr 12” for “2×ABL1/Tyr 02”, “0.14-1.3” for “0.29-1.26”, “CDK5/p35” for “ABL1”, “Ser/Thr 12” for “Tyr 02”, “1:4096” for “1:128”

[1] = 10 μmolar compound concentration, ATP at Km app, read-out: FLT4 (VEGFR3) inhibition
[2] = read-out: % Inhibition mean FLT4 (VEGFR3)
[3] = 10 μmolar compound concentration, ATP at Km app, read-out: ABL1 inhibition
[4] = read-out: % Inhibition mean ABL1
[5] = 10 μmolar compound concentration, ATP at Km app, read-out: PTK2 (FAK) inhibition
[6] = read-out: % Inhibition mean PTK2 (FAK)
[7] = 10 μmolar compound concentration, ATP at Km app, read-out: CDK5/p35 inhibition
[8] = read-out: % Inhibition mean CDK5/p35

Sequence of PTK2 (FAK) (Q05397 whole entry): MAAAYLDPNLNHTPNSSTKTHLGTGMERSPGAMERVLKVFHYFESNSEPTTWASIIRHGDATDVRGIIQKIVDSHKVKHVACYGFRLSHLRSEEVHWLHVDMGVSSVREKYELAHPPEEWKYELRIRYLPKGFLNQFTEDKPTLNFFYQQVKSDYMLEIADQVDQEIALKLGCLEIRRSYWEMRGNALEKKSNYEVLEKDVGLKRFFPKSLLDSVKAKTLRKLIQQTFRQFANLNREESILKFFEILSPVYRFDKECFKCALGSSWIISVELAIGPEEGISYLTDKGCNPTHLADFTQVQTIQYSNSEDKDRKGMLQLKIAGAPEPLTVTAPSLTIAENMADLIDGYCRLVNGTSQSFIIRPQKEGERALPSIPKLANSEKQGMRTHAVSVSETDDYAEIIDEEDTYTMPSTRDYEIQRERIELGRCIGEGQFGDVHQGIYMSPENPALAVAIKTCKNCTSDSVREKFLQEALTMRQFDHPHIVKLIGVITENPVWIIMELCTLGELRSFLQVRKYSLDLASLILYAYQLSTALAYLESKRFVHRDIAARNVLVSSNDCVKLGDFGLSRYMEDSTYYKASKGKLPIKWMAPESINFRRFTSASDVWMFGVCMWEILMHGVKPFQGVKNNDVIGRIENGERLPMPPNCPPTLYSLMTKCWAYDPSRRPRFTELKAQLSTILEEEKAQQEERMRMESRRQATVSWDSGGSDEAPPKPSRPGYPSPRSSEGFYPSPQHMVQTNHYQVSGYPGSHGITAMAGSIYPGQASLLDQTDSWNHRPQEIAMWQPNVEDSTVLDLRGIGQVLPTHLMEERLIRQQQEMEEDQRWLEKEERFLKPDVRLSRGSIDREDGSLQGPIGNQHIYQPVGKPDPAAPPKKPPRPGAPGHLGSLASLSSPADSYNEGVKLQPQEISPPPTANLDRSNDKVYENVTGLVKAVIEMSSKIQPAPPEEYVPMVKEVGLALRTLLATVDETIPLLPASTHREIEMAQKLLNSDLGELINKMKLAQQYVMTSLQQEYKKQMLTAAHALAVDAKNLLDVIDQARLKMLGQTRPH
Sequence of FLT4 (VEGFR3) (P35916 25-1363): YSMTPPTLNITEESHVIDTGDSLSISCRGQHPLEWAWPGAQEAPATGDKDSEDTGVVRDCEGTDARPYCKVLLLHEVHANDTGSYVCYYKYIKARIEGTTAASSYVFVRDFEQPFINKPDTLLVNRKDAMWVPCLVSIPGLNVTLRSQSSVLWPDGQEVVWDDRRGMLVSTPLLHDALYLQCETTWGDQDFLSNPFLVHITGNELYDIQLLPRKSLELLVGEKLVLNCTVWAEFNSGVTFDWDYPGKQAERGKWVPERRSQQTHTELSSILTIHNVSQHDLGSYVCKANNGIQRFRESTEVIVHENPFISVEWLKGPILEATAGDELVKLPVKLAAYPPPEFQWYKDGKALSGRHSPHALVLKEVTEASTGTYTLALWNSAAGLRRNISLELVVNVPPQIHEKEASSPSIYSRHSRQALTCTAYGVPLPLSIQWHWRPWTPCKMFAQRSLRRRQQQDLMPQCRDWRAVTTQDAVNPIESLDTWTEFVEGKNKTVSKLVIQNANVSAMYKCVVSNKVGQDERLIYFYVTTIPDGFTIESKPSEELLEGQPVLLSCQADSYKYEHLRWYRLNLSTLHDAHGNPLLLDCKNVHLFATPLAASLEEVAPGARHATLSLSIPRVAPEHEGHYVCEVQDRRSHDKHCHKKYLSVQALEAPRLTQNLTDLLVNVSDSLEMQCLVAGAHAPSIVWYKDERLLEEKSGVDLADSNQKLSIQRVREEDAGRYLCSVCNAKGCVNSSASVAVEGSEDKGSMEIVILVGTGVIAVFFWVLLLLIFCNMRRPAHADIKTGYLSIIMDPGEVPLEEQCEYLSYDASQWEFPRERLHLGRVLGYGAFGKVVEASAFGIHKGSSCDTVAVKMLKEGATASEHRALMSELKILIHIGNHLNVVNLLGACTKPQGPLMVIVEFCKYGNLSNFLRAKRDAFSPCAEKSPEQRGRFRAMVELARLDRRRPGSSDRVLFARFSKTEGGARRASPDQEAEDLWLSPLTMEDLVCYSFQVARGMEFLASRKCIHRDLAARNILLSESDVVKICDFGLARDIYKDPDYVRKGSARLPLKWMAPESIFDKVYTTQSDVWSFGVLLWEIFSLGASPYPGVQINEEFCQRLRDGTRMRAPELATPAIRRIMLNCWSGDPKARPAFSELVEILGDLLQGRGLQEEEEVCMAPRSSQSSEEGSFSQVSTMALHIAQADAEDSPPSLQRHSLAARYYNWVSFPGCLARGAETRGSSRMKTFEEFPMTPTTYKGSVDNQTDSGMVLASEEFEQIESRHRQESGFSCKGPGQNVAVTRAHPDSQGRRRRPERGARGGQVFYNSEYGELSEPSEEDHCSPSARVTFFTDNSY
Sequence of ABL1 (P00519 whole entry): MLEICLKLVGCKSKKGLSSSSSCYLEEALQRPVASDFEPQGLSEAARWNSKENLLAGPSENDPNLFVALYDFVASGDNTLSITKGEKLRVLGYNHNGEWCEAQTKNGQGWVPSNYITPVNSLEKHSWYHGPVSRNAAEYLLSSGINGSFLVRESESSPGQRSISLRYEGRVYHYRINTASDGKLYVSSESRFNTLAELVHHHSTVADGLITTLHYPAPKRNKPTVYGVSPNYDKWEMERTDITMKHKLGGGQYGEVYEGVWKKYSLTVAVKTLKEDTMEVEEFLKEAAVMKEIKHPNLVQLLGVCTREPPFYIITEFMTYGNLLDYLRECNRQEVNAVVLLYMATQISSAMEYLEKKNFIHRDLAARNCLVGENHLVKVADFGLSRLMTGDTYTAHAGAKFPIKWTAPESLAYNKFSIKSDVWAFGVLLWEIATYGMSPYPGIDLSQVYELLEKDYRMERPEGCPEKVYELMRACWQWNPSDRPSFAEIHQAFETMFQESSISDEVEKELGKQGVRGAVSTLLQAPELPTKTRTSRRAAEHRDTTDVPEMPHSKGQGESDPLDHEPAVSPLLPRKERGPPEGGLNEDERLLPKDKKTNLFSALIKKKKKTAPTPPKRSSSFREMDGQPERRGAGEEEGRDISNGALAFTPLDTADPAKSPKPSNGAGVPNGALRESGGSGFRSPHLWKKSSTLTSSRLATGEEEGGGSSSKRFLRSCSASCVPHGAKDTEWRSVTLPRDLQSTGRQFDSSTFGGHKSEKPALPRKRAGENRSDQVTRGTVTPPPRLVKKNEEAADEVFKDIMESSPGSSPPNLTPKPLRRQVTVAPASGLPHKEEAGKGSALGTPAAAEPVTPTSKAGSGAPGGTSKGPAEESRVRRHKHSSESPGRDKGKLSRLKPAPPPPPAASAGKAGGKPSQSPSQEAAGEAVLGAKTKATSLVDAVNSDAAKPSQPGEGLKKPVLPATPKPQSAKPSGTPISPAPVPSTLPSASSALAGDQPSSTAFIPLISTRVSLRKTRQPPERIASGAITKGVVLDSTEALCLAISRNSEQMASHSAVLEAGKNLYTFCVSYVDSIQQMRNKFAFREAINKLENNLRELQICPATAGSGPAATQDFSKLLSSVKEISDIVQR
Sequence of CDK5/p35 (Q00535 whole entry): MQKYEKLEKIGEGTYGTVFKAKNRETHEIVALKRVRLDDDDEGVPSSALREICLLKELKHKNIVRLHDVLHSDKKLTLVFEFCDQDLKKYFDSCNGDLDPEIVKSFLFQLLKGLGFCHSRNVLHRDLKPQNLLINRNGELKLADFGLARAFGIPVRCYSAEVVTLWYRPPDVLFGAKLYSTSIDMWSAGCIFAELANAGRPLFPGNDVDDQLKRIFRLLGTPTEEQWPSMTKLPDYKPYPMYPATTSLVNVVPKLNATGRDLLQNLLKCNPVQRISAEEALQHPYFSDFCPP
Sequence of CDK5/p35 (Q15078 whole entry partner): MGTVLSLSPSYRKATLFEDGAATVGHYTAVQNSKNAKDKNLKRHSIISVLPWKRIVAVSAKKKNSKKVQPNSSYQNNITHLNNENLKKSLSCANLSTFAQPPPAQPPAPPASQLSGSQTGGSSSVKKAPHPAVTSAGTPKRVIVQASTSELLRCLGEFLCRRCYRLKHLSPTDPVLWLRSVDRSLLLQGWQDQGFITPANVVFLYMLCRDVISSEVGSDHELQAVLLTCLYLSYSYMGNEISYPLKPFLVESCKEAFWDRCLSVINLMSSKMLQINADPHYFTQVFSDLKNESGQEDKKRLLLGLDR

SMILES: Cc1cc(F)ccc1-c1cccn2nc(NC3CCc4c(cnn4CC(C)C)C3)nc12 (stereo not drawn) [Example 45, [8-(4-fluoro-2-methyl-phenyl)-[1,2,4]triazolo[1,5-a]pyridine-2-yl]-(1-isobutyl-4,5,6,7-tetrahydro-1H-indazol-5-yl)-amine]
- inhibition at 10 µM (FLT4 (VEGFR3); [1]): < 40%
- inhibition at 10 µM (FLT4 (VEGFR3); [2]): 33%
- inhibition at 10 µM (ABL1; [3]): < 40%
- inhibition at 10 µM (ABL1; [4]): 24%
- inhibition at 10 µM (PTK2 (FAK); [5]): < 40%
- inhibition at 10 µM (PTK2 (FAK); [6]): 20%
- inhibition at 10 µM (CDK5/p35; [7]): < 40%
- inhibition at 10 µM (CDK5/p35; [8]): 8%

SMILES: CCn1ncc2c1CCC(Nc1nc3c(-c4ccccc4C)cccn3n1)C2 (stereo not drawn) [Example 56, (1-Ethyl-4,5,6,7-tetrahydro-1H-indazol-5-yl)-[8-(2-methyl-phenyl)-[1,2,4]triazolo[1,5-a]pyridine-2-yl]-amine]
- inhibition at 10 µM (FLT4 (VEGFR3); [2]): 35%
- inhibition at 10 µM (ABL1; [3]): < 40%
- inhibition at 10 µM (ABL1; [4]): 20%
- inhibition at 10 µM (PTK2 (FAK); [5]): < 40%
- inhibition at 10 µM (PTK2 (FAK); [6]): 15%
- inhibition at 10 µM (CDK5/p35; [7]): 40 to 80%
- inhibition at 10 µM (CDK5/p35; [8]): 52%

SMILES: CCn1ncc2c1CCC(Nc1nc3c(-c4ccc(OC)nc4)cccn3n1)C2 (stereo not drawn) [Example 71, (1-Ethyl-4,5,6,7-tetrahydro-1H-indazol-5-yl)-[8-(6-methoxy-pyridin-3-yl)-[1,2,4]triazolo[1,5-a]pyridine-2-yl]-amine]
- inhibition at 10 µM (FLT4 (VEGFR3); [1]): 40 to 80%
- inhibition at 10 µM (FLT4 (VEGFR3); [2]): 62%
- inhibition at 10 µM (ABL1; [3]): < 40%
- inhibition at 10 µM (ABL1; [4]): 24%
- inhibition at 10 µM (PTK2 (FAK); [5]): < 40%
- inhibition at 10 µM (PTK2 (FAK); [6]): 30%
- inhibition at 10 µM (CDK5/p35; [7]): 40 to 80%
- inhibition at 10 µM (CDK5/p35; [8]): 53%

SMILES: Cc1cc(F)ccc1-c1cccn2nc(Nc3ccc4c(cnn4C)c3)nc12 [Example 9, [8-(4-fluoro-2-methyl-phenyl)-[1,2,4]triazolo[1,5-a]pyridine-2-yl]-(1-methyl-1H-indazol-5-yl)-amine]
- inhibition at 10 µM (FLT4 (VEGFR3); [1]): > 80%
- inhibition at 10 µM (FLT4 (VEGFR3); [2]): 86%
- inhibition at 10 µM (ABL1; [3]): 40 to 80%
- inhibition at 10 µM (ABL1; [4]): 63%
- inhibition at 10 µM (PTK2 (FAK); [5]): < 40%
- inhibition at 10 µM (PTK2 (FAK); [6]): 7%
- inhibition at 10 µM (CDK5/p35; [7]): 40 to 80%
- inhibition at 10 µM (CDK5/p35; [8]): 42%

SMILES: CCCn1ncc2c1CCC(Nc1nc3c(-c4ccc(F)cc4C)cccn3n1)C2 (stereo not drawn) [Example 43, [8-(4-fluoro-2-methyl-phenyl)-[1,2,4]triazolo[1,5-a]pyridine-2-yl]-(1-propyl-4,5,6,7-tetrahydro-1H-indazol-5-yl)-amine]
- inhibition at 10 µM (FLT4 (VEGFR3); [1]): < 40%
- inhibition at 10 µM (FLT4 (VEGFR3); [2]): 11%
- inhibition at 10 µM (ABL1; [3]): < 40%
- inhibition at 10 µM (ABL1; [4]): 17%
- inhibition at 10 µM (PTK2 (FAK); [5]): < 40%
- inhibition at 10 µM (PTK2 (FAK); [6]): 19%
- inhibition at 10 µM (CDK5/p35; [7]): < 40%
- inhibition at 10 µM (CDK5/p35; [8]): 36%

SMILES: CCn1ncc2c1CC[C@@H](Nc1nc3c(-c4ccc(F)c(Cl)c4)cccn3n1)C2 [Example R-61, (R)-[8-(3-Chloro-4-fluoro-phenyl)-[1,2,4]triazolo[1,5-a]pyridine-2-yl]-(1-ethyl-4,5,6,7-tetrahydro-1H-indazol-5-yl)-amine]
- inhibition at 10 µM (FLT4 (VEGFR3); [1]): < 40%
- inhibition at 10 µM (FLT4 (VEGFR3); [2]): 21%
- inhibition at 10 µM (ABL1; [3]): < 40%
- inhibition at 10 µM (ABL1; [4]): 3%
- inhibition at 10 µM (PTK2 (FAK); [5]): < 40%
- inhibition at 10 µM (PTK2 (FAK); [6]): 16%
- inhibition at 10 µM (CDK5/p35; [7]): < 40%
- inhibition at 10 µM (CDK5/p35; [8]): 25%

SMILES: CCn1ncc2c1CCC(Nc1nc3c(-c4ccc(C)nc4)cccn3n1)C2 (stereo not drawn) [Example 67, (1-Ethyl-4,5,6,7-tetrahydro-1H-indazol-5-yl)-[8-(6-methyl-pyridin-3-yl)-[1,2,4]triazolo[1,5-a]pyridine-2-yl]-amine]
- inhibition at 10 µM (FLT4 (VEGFR3); [1]): < 40%
- inhibition at 10 µM (FLT4 (VEGFR3); [2]): 33%
- inhibition at 10 µM (ABL1; [3]): < 40%
- inhibition at 10 µM (ABL1; [4]): 11%
- inhibition at 10 µM (PTK2 (FAK); [5]): < 40%
- inhibition at 10 µM (PTK2 (FAK); [6]): 27%
- inhibition at 10 µM (CDK5/p35; [7]): < 40%
- inhibition at 10 µM (CDK5/p35; [8]): 35%

SMILES: CCn1ncc2c1CCC(Nc1nc3c(-c4cncc(OC)c4)cccn3n1)C2 (stereo not drawn) [Example 70, (1-Ethyl-4,5,6,7-tetrahydro-1H-indazol-5-yl)-[8-(5-methoxy-pyridin-3-yl)-[1,2,4]triazolo[1,5-a]pyridine-2-yl]-amine]
- inhibition at 10 µM (FLT4 (VEGFR3); [1]): < 40%
- inhibition at 10 µM (FLT4 (VEGFR3); [2]): 28%
- inhibition at 10 µM (ABL1; [3]): < 40%
- inhibition at 10 µM (ABL1; [4]): 15%
- inhibition at 10 µM (PTK2 (FAK); [5]): < 40%
- inhibition at 10 µM (PTK2 (FAK); [6]): 14%
- inhibition at 10 µM (CDK5/p35; [7]): 40 to 80%
- inhibition at 10 µM (CDK5/p35; [8]): 58%
